Measured values from PMC10689823, “Discovery of a Drug-like, Natural Product-Inspired DCAF11 Ligand Chemotype” (Nature Communications, 2023).

Target: BRD4S-TagBFP reporter (Homo sapiens, UniProt O60885)
Test: FACS-based CRISPR/Cas9 BRD4 protein stability screen
Conditions: Mageck_Gene level

## Cc1sc2c(c1C)C(c1ccc(Cl)cc1)=N[C@@H](CC(=O)NCCOCCOCCOCCOCCNC(=O)COc1c(Br)cc(/C=C3\C(=O)Nc4ccc(Br)cc43)cc1Br)c1nnc(C)n1-2 [Compound 9]
Gene DCAF1
  High_lfc: -0.04
  High_logP: 0.22
  Low_lfc: 0.71
  Low_logP: 1.93
Gene DCAF4
  High_lfc: -0.33
  High_logP: 0.01
  Low_lfc: -0.08
  Low_logP: 0.63
Gene DCAF5
  High_lfc: -0.12
  High_logP: 0.13
  Low_lfc: 0.4
  Low_logP: 1.39
Gene DCAF6
  High_lfc: 0.1
  High_logP: 0.11
  Low_lfc: 0.51
  Low_logP: 1.55
Gene DCAF7
  High_lfc: -0.09
  High_logP: 0.04
  Low_lfc: 0.11
  Low_logP: 0.24
Gene DCAF8
  High_lfc: -0.19
  High_logP: 0.14
  Low_lfc: 0.08
  Low_logP: 0.18
Gene DCAF12
  High_lfc: 0.07
  High_logP: 0.29
  Low_lfc: -0.16
  Low_logP: 0.06
Gene DCAF13
  High_lfc: -0.33
  High_logP: 0.07
  Low_lfc: -0.3
  Low_logP: 0.33
Gene DCAF15
  High_lfc: -0.01
  High_logP: 0.12
  Low_lfc: 0.32
  Low_logP: 0.83
Gene DCAF16
  High_lfc: 0.71
  High_logP: 2.61
  Low_lfc: -0.66
  Low_logP: 0.04
Gene DCAF17
  High_lfc: 0.07
  High_logP: 0.17
  Low_lfc: -0.16
  Low_logP: 0.07
Gene DCUN1D1
  High_lfc: 0.27
  High_logP: 1.62
  Low_lfc: -0.11
  Low_logP: 0.82
Gene DCUN1D2
  High_lfc: -0.24
  High_logP: 0
  Low_lfc: 0.46
  Low_logP: 1.57
Gene DCUN1D3
  High_lfc: 0.07
  High_logP: 0.22
  Low_lfc: 0.29
  Low_logP: 0.82
Gene DCUN1D4
  High_lfc: -0.09
  High_logP: 0.04
  Low_lfc: -0.2
  Low_logP: 0.05
Gene DCUN1D5
  High_lfc: 0.69
  High_logP: 2.79
  Low_lfc: -0.49
  Low_logP: 0
Gene DDA1
  High_lfc: 0.43
  High_logP: 1.02
  Low_lfc: -0.23
  Low_logP: 0.16
Gene DDB1
  High_lfc: 2.03
  Low_lfc: 0.4
  Low_logP: 0.83
Gene DDB2
  High_lfc: 0.02
  High_logP: 0.06
  Low_lfc: 0.07
  Low_logP: 0.53
Gene DET1
  High_lfc: -0.36
  High_logP: 0.06
  Low_lfc: -0.27
  Low_logP: 0.06
Gene DHX15
  High_lfc: 0.66
  Low_lfc: 0.13
  Low_logP: 0.31
Gene DTL
  High_lfc: -0.25
  High_logP: 0.1
  Low_lfc: 0.46
  Low_logP: 1.87
Gene ECT2L
  High_lfc: -0.03
  High_logP: 0.31
  Low_lfc: -0.31
  Low_logP: 0.2
Gene EED
  High_lfc: 0.01
  High_logP: 0.06
  Low_lfc: -0.55
  Low_logP: 0.01
Gene EIF4A1
  High_lfc: -0.26
  High_logP: 0.15
  Low_lfc: -0.34
  Low_logP: 0.04
Gene EIF4A3
  High_lfc: -0.3
  High_logP: 0.1
  Low_lfc: 0.62
  Low_logP: 1.82
Gene ELOA2
  High_lfc: 0.02
  High_logP: 0.19
  Low_lfc: -0.02
  Low_logP: 0.17
Gene ELOA3
  High_lfc: -0.12
  High_logP: 0.33
  Low_lfc: -0.41
  Low_logP: 0.06
Gene ELOA3D
  High_lfc: -0.34
  High_logP: 0.11
  Low_lfc: -0.14
  Low_logP: 0.69
Gene ELOA
  High_lfc: -0.54
  High_logP: 0
  Low_lfc: 0.05
  Low_logP: 0.65
Gene ELOB
  High_lfc: -0.05
  High_logP: 0.33
  Low_lfc: 0.22
  Low_logP: 0.4
Gene ELOC
  High_lfc: -0.21
  High_logP: 0.17
  Low_lfc: 0.63
  Low_logP: 1.29
Gene ENC1
  High_lfc: -0.27
  High_logP: 0.19
  Low_lfc: -0.31
  Low_logP: 0.09
Gene EPHA4
  High_lfc: 0.01
  High_logP: 0.19
  Low_lfc: -0.17
  Low_logP: 0.06
Gene ERCC8
  High_lfc: -0.19
  High_logP: 0.27
  Low_lfc: -0.63
  Low_logP: 0.01
Gene ESCO1
  High_lfc: 0.1
  High_logP: 0.14
  Low_lfc: -0.14
  Low_logP: 0.11
Gene FAM9A
  High_lfc: -0.28
  High_logP: 0.03
  Low_lfc: -0.03
  Low_logP: 0.66
Gene FBXL2
  High_lfc: -0.01
  High_logP: 0.32
  Low_lfc: -0.67
  Low_logP: 0.02
Gene FBXL3
  High_lfc: 0.05
  High_logP: 0.1
  Low_lfc: 0.28
  Low_logP: 0.58
Gene FBXL4
  High_lfc: -0.08
  High_logP: 0.06
  Low_lfc: 0.06
  Low_logP: 0.49
Gene FBXL5
  High_lfc: 0.03
  High_logP: 0.04
  Low_lfc: 0.05
  Low_logP: 0.32
Gene FBXL6
  High_lfc: 0.08
  High_logP: 0.54
  Low_lfc: 0.07
  Low_logP: 0.24
Gene FBXL7
  High_lfc: -0.35
  High_logP: 0.03
  Low_lfc: -0.35
  Low_logP: 0.01
Gene FBXL8
  High_lfc: -0.11
  High_logP: 0.39
  Low_lfc: 0.2
  Low_logP: 0.54
Gene FBXL12
  High_lfc: 0.01
  High_logP: 0.22
  Low_lfc: 0.06
  Low_logP: 0.38
Gene FBXL13
  High_lfc: -0.18
  High_logP: 0.02
  Low_lfc: -0.03
  Low_logP: 0.46
Gene FBXL14
  High_lfc: -0.12
  High_logP: 0.22
  Low_lfc: 0.15
  Low_logP: 0.61
Gene FBXL15
  High_lfc: 0.41
  High_logP: 0.56
  Low_lfc: 0.18
  Low_logP: 0.28
Gene FBXL16
  High_lfc: 0.12
  High_logP: 0.12
  Low_lfc: -0.11
  Low_logP: 0.07
Gene FBXL17
  High_lfc: 0.03
  High_logP: 0.74
  Low_lfc: -0.02
  Low_logP: 0.44
Gene FBXL18
  High_lfc: 0.28
  High_logP: 1.09
